# Like-named read-outs stand apart in the source and are kept apart here.
# Tested on: in vitro model of the blood brain barrier (brain capillary endothelial cells co-cultured with glial cells)
# Experiment: In vitro BBB model: passage of p97 tryptic digest peptides, LC-MS/MS peak areas in luminal and abluminal compartments
# Type: in vitro ADME, rat
# Protocol: Experiments were performed to evaluate the passage of mixtures of p97 peptide fragments across the blood-brain barrier (BBB) using a relevant and predictive BBB in vitro model (see Cecchelli et al., Adv. Drug Deliv. Rev. 36:165-178, 1999). The model utilizes brain capillary endothelial cells co-cultured with glial cells, to closely mimic the in vivo BBB (see Lundquist et al., Pharm. Res. 16:976-981, 2002).
# To provide an in vitro system for studying brain capillary functions, a process of co-culture that closely mimics the in vivo BBB was established by culturing brain capillary endothelial cells on one side of a filter and supportive glial cells on the other side. Specifically, endothelial cells were cultured in the upper compartment on the filter and glial cells in the lower compartment on the plastic of a six-wells plate (see FIGS. 7 and 8). Under these conditions, endothelial cells retain the appropriate endothelial markers (e.g., factor VIII—related antigen, non-thrombogenic surface, production of prostacyclin, angiotensin-converting enzyme activity), and also retain the relevant characteristics of the BBB (e.g., presence of tight junctions, paucity of pinocytotic vesicles, monoamine oxidase activity, γ-glutamyltranspeptidase activity, P-glycoprotein activity, specific receptors for low density lipoproteins, and transferrin).
# After removing the meninges, the brain tissue was forced gently through a nylon sieve. DMEM (Dulbecco's modified Eagle medium) supplemented with 10% (v/v) fetal calf serum (FCS, same as Fetal Bovine Serum: FBS), 2 mM glutamine, and 50 μg·ml^−1 of gentamycin was used for the dissociation of cerebral tissue and development of glial cells. […]
# The glial cells were plated at a concentration of about 1.25×10^5 cells/ml in plastic six-well plates and incubated at 37° C. with 5% CO2. The medium was changed twice a week. […] Then, sub-clones of endothelial cells frozen at passage 3 were cultured on a 60-mm-diameter gelatin-coated Petri dish. Confluent endothelial cells were trypsinized and plated on the upper side of the filters at a density of 4×10^5 cells/ml. The medium used for the co-culture was DMEM supplemented with 10% (v/v) calf serum (CS) and 10% (v/v) horse serum (HS), 2 mM glutamine, and 50 μg/ml of gentamycin, and 1 ng/ml of basic fibroblast growth factor was added every other day.
# On the day of the experiments, Ringer-HEPES (NaCl, 150 mM; KCl, 5.2 mM; CaCl2, 2.2 mM; MgCl2 6H20, 0.2 mM; NaHCO3, 6 mM; HEPES, 5 mM; glucose, 2.8 mM) was added to the lower compartment (abluminal side) of a six-well plate (3 mL per well). Filters with or without endothelial cells were washed with the Ringer-HEPES solution for 10 minutes at 37° C. to minimize traces of serum, and were then transferred to each well of the six-well plate. A volume of 1 mL Ringer-HEPES solution containing the peptide fragments in combination with Lucifer Yellow (20 μM) was placed in the upper compartment (luminal side) of the well.
# Experiments were performed in triplicate with filters containing a confluent monolayer of endothelial cells (for BBB integrity testing or evaluation of peptide fragment passage), or in triplicate with empty filters coated only with collagen (filter test). Incubations were performed on a rocking platform for 120 minutes at 37° C.
# [1] = tryptic peptides, abluminal compartment, 120 minutes, 4 micron pore size, LC-MS/MS peak area
# [2] = tryptic peptides, luminal compartment, 120 minutes, 4 micron pore size, LC-MS/MS peak area
# [3] = tryptic peptides, abluminal compartment, 120 minutes, 3 micron pore size, LC-MS/MS peak area
# [4] = tryptic peptides, luminal compartment, 120 minutes, 3 micron pore size, LC-MS/MS peak area
# [5] = tryptic peptides, abluminal/luminal peak area ratio at 120 minutes, 0.4 um insert
# [6] = tryptic peptides, abluminal/luminal peak area ratio at 120 minutes, 3.0 um insert
substance,measurement,setting,value
DSSHAFTLDELR (listed as Homo sapiens) [tryptic peptide fragment of human p97],"Abl 120/Lum120 peak area ratio, 0.4 um insert",,0.98
SSHVTIDTLKGVK (listed as Homo sapiens) [tryptic peptide fragment of human p97],"Abl 120/Lum120 peak area ratio, 0.4 um insert",,2.42
same,"Abl 120/Lum120 peak area ratio, 3.0 um insert",,2.38
ADVTEWR (listed as Homo sapiens) [tryptic peptide fragment of human p97],"Abl 120/Lum120 peak area ratio, 0.4 um insert",,12.76
same,"Abl 120/Lum120 peak area ratio, 3.0 um insert",,11.26
YYDYSGAFR (listed as Homo sapiens) [tryptic peptide fragment of human p97],"Abl 120/Lum120 peak area ratio, 0.4 um insert",,7.40
HSTVLENTDGK (listed as Homo sapiens) [tryptic peptide fragment of human p97],Ablum 120: Area,,0.00E+00
DLLFKDSTSELVPIATQTYEAWLGHEYLHAMK [tryptic peptide fragment of human p97],Ablum 120: Area,[1],0.00E+00
same,Lum 120: Area,[2],3.76E+07
IQAEQVDAVTLSGEDIYTAGK [tryptic peptide fragment of human p97],Ablum 120: Area,[3],0.00E+00
same,Ablum 120: Area,[1],0.00E+00
same,Lum 120: Area,[4],3.48E+06
CLVENAGDVAFVR (listed as Homo sapiens) [tryptic peptide fragment of human p97],Ablum 120: Area,,1.30E+08
same,Lum 120: Area,,5.49E+08
VPAHAWVR,"Abl 120/Lum120 peak area ratio, 0.4 um insert",,3.32
same,"Abl 120/Lum120 peak area ratio, 3.0 um insert",,3.56
WCVLSTPEIQK (listed as Homo sapiens) [tryptic peptide fragment of human p97],Lum 120: Area,,0.00E+00
DSSHAFTLDELRGK [tryptic peptide fragment of human p97],Ablum 120: Area,[3],1.99E+07
same,Ablum 120: Area,[1],2.37E+07
same,Lum 120: Area,[4],0.00E+00
same,Lum 120: Area,[2],0.00E+00
ADVTEWRQCHLAR (listed as Homo sapiens) [tryptic peptide fragment of human p97],Ablum 120: Area,,4.26E+06
same,Lum 120: Area,,0.00E+00
AQDLFGDDHNKNGFK [tryptic peptide fragment of human p97],"Abl 120/Lum120 peak area ratio, 0.4 um insert",[5],5.45
same,"Abl 120/Lum120 peak area ratio, 3.0 um insert",[6],1.68
AVSDYFGGSCVPGAGETSYSESLCR [tryptic peptide fragment of human p97],Ablum 120: Area,[3],5.49E+08
same,Ablum 120: Area,[1],7.98E+08
same,Lum 120: Area,[4],5.51E+09
same,Lum 120: Area,[2],5.03E+09
NYPSSLCALCVGDEQGR [tryptic peptide fragment of human p97],Ablum 120: Area,[3],7.34E+07
same,Ablum 120: Area,[1],1.09E+08
same,Lum 120: Area,[4],6.15E+08
same,Lum 120: Area,[2],5.52E+08
MFDSSNYHGQDLLFKDATVR [tryptic peptide fragment of human p97],Ablum 120: Area,[1],0.00E+00
same,Lum 120: Area,[2],0.00E+00
EHGLKPVVGEVYDQEVGTSYYAVAVVRR [tryptic peptide fragment of human p97],Ablum 120: Area,[3],1.70E+07
same,Ablum 120: Area,[1],2.62E+07
same,Lum 120: Area,[4],0.00E+00
same,Lum 120: Area,[2],0.00E+00
CVGNSQERYYGYR (listed as Homo sapiens) [tryptic peptide fragment of human p97],Lum 120: Area,,0.00E+00
GDSSGEGVCDKSPLER [tryptic peptide fragment of human p97],Ablum 120: Area,[3],1.93E+09
same,Ablum 120: Area,[1],2.34E+09
same,"Abl 120/Lum120 peak area ratio, 0.4 um insert",[5],4.93
same,"Abl 120/Lum120 peak area ratio, 3.0 um insert",[6],3.80
same,Lum 120: Area,[4],5.08E+08
same,Lum 120: Area,[2],4.75E+08
SEDYELLCPNGAR (listed as Homo sapiens) [tryptic peptide fragment of human p97],"Abl 120/Lum120 peak area ratio, 0.4 um insert",,13.05
same,"Abl 120/Lum120 peak area ratio, 3.0 um insert",,8.38
CGDMAVAFR (listed as Homo sapiens) [tryptic peptide fragment of human p97],"Abl 120/Lum120 peak area ratio, 0.4 um insert",,2.26
same,"Abl 120/Lum120 peak area ratio, 3.0 um insert",,2.06
AVPVGEKTTYR (listed as Homo sapiens) [tryptic peptide fragment of human p97],Ablum 120: Area,,0.00E+00
same,Lum 120: Area,,0.00E+00
LKPEIQCVSAK (listed as Homo sapiens) [tryptic peptide fragment of human p97],"Abl 120/Lum120 peak area ratio, 0.4 um insert",,4.81
same,"Abl 120/Lum120 peak area ratio, 3.0 um insert",,4.37
ADTDGGLIFRLLNEGQR [tryptic peptide fragment of human p97],Ablum 120: Area,[3],0.00E+00
same,Ablum 120: Area,[1],5.53E+06
same,Lum 120: Area,[4],3.69E+07
same,Lum 120: Area,[2],3.36E+07
TVGWNVPVGYLVESGR [tryptic peptide fragment of human p97],Ablum 120: Area,[3],0.00E+00
same,Ablum 120: Area,[1],1.38E+07
same,Lum 120: Area,[4],9.38E+07
same,Lum 120: Area,[2],1.01E+08
ADTDGGLIFR (listed as Homo sapiens) [tryptic peptide fragment of human p97],"Abl 120/Lum120 peak area ratio, 0.4 um insert",,1.95
same,"Abl 120/Lum120 peak area ratio, 3.0 um insert",,1.44
WCATSDPEQHK (listed as Homo sapiens) [tryptic peptide fragment of human p97],"Abl 120/Lum120 peak area ratio, 0.4 um insert",,8.92
same,"Abl 120/Lum120 peak area ratio, 3.0 um insert",,7.41
CGNMSEAFR (listed as Homo sapiens) [tryptic peptide fragment of human p97],Ablum 120: Area,,2.53E+07
same,Lum 120: Area,,0.00E+00
RSSHVTIDTLK (listed as Homo sapiens) [tryptic peptide fragment of human p97],"Abl 120/Lum120 peak area ratio, 0.4 um insert",,2.06
same,"Abl 120/Lum120 peak area ratio, 3.0 um insert",,1.23
LLNEGQR (listed as Homo sapiens) [tryptic peptide fragment of human p97],Ablum 120: Area,,0.00E+00
LCRGDSSGEGVCDK [tryptic peptide fragment of human p97],Ablum 120: Area,[3],2.64E+05
same,Ablum 120: Area,[1],5.97E+05
same,"Abl 120/Lum120 peak area ratio, 0.4 um insert",[5],2.45
same,"Abl 120/Lum120 peak area ratio, 3.0 um insert",[6],1.21
same,Lum 120: Area,[4],2.17E+05
same,Lum 120: Area,[2],2.44E+05

# Source: patent US9364567B2, “Fragments of p97 and uses thereof” (biOasis Technologies, Inc., priority 2013, dated 2016)
